Source: patent US20210121414A1, “METHOD FOR PRODUCING A PHARMACEUTICAL COMPOSITION OF POLYMERIC NANOPARTICLES FOR TREATING NEUROPATHIC PAIN CAUSED BY […] COMPRESSION” (UNIVERSIDAD DE SEVILLA, priority 2015, published 2021)

How the values were obtained:
[1] = tested on: Chronic constriction injury (CCI) model of mononeuropathy, mechanical hyperalgesia; assay: Paw-pinch test of mechanical hyperalgesia in chronic constriction injury (CCI) rats after single oral administration; type: in vivo, Harlan Sprague-Dawley male albino rats; conditions: CB13 alone
Description: Harlan Sprague-Dawley male albino rats (230-350 g), provided by the University of Cádiz Animal Experimentation Unit registered under the number ES110120000210, were used. The animals were kept under standard housing conditions (21° C., 12h light-dark cycle, “ad libitum” water and food). All experiments were carried out in accordance with the ethical guidelines for working with experimental animals proposed by the International Association for the Study of Pain […] and by the Federation of Laboratory Animal Science Associations (FELASA).
Chronic constriction injury, (CCI) was used as a model of mononeuropathy since it is a model that correlates well with the symptoms presented in the patients (spontaneous pain, mechanical and thermal allodynia and hyperalgesia.
Nociceptive behavior was evaluated in the ipsi- and contralateral paw to the ligation for sciatic nerve […]. The presence of mechanical hyperalgesia was assessed by using the paw-pinch test. Thus, gradual, increasing pressure (starting with 30 g of pressure) was exerted on the rear part of the paw using a motorized device (Analgesia Meter 57215, UGO BASILE). The cut-off pressure was set at 250 g to prevent possible damage to the paw. Two measurements were taken on each paw, 5 minutes apart, and the average value was used for statistical purposes. Mechanical hyperalgesia appeared as the pressure on the paw decreased.

[2] = cited from earlier work
[3] = tested on: established mechanical hyperalgesia; conditions: cited from earlier work
[4] = cited from earlier work; remark: listed apart in the source
central nervous system = conditions: rats; cited from earlier work

CCCCCOc1ccc(C(=O)c2cccc3ccccc23)c2ccccc12 [CB13, 1-naphthalenyl[4-(pentyloxy)-1-naphthalenyl]methanone]
anti-hyperalgesic effect 9 hours after administration ([1]; 9 hours): continued to be effective but to a lesser extent
anti-hyperalgesic effect after 24 hours ([1]; 24 hours): its effectiveness had disappeared
penetration into the brain ([2]; in vivo): limited penetration into the brain
absorption after oral administration ([2]; oral): not completely absorbed
antihyperalgesic activity in animal models ([3]; animal models): powerful antihyperalgesic activity
effect on established mechanical hyperalgesia ([3]; oral administration and local injection into the hind paw, pig and rat): reverses the established mechanical hyperalgesia
aqueous solubility [4]: 0.001-0.002 mg/m L
dose with significant CNS effects relative to the oral dose required to reverse hyperalgesia (central nervous system): 20 times
